Series [1] concerns mature cyclic rats. Kind of series: Ovulation inhibition in rat after oral administration (in vivo progestagenic activity). The conditions noted are these: 96 h, minimal active dose: average number of ova reduced by 60% relative to placebo, oral administration for 1 complete cycle (4 days), read-out: MAD. On the procedure:
Ovulation inhibition after oral administration of the compounds of the invention was studied in mature cyclic rats. Animals were treated with test compound (oral administration) for 1 complete cycle (4 days, from oestrus to pro-oestrus) and the number of ova in the oviduct was microscopically assessed at autopsy in the morning of the next (expected) oestrus. The average number of ova per rat was calculated; the minimal active dose (MAD) is defined as the level at which the average number of ova is reduced by 60% relative to placebo-treated animals.

Take `C=Cc1cc(F)cc2c1N1CCC[C@H](NC(=O)C(F)(F)F)[C@H]1c1ccccc1O2` [example 59 of WO03/ 084963, reference compound]: the minimal effective dose in series [1] is more than 4 mg/kg.
As for `CC(=O)N[C@H]1CCCN2c3c(ccc(Cl)c3Cl)Oc3ccccc3[C@H]12` [example 47 of WO03/ 084963, reference compound], the minimal effective dose in series [1] is more than 4 mg/kg.
For the compound `N#Cc1cc2c(cc1F)Oc1cccc(F)c1[C@@H]1[C@@H](NC(=O)C(F)(F)F)CCCN21` (stereo in doubt) [Example 8, (−)-(cis)-N-(7-cyano-8,14-difluoro-1,3,4,14b-tetrahydro-2H-dibenzo [b,f]pyrido[1,2-d][1,4]oxazepin-1-yl)-2,2,2-trifluoroacetamide], the minimal effective dose in series [1] worked out at 0.01 mg/kg.
As to `N#Cc1cc2c(cc1F)Oc1ccccc1[C@@H]1[C@@H](NC(=O)C(F)(F)F)CCCN21` (stereo in doubt) [Example 2, (−)-(cis)-N-(7-cyano-8-fluoro-1,3,4,14b-tetrahydro-2H-dibenzo [b,f]pyrido[1,2-d][1,4]oxazepin-1-yl)-2,2,2-trifluoroacetamide], the minimal effective dose in series [1] came to 0.014 mg/kg.
In the case of `N#Cc1ccc2c(c1)N1CCC[C@H](NC(=O)C(F)(F)F)[C@H]1c1ccccc1O2` [eutomer of example 63 of WO03/ 084963, reference compound], the minimal effective dose in series [1] is approximately 4 mg/kg.
Still for that read-out and setting: for `N#Cc1c(F)cc2c(c1Cl)N1CCC[C@H](NC(=O)C(F)(F)F)[C@H]1c1c(F)cccc1O2` (stereo in doubt) [Example 9, (−)-(cis)-N-(6-chloro-7-cyano-8,14-difluoro-1,3,4,14b-tetrahydro-2H-dibenzo [b,f]pyrido[1,2-d][1,4]oxazepin-1-yl)-2,2,2-trifluoroacetamide] the value was less than 0.02 mg/kg; for `N#Cc1c(F)cc2c(c1Cl)N1CCC[C@H](NC(=O)C(F)(F)F)[C@H]1c1cccc(F)c1O2` (stereo in doubt) [Example 7, (−)-(cis)-N-(6-chloro-7-cyano-8,11-difluoro-1,3,4,14b-tetrahydro-2H-dibenzo [b,f]pyrido[1,2-d][1,4]oxazepin-1-yl)-2,2,2-trifluoroacetamide], 0.025 mg/kg.
The same measure, in the same setting: with `CC(=O)c1cc(F)cc2c1N1CCC[C@H](NC(=O)C(F)(F)F)[C@H]1c1ccccc1O2` [example 57 of WO03/ 084963, reference compound] the figure was more than 4 mg/kg.
`N#Cc1c(F)cc2c(c1Cl)N1CCC[C@H](NC(=O)C(F)(F)F)[C@H]1c1ccc(F)cc1O2` (stereo in doubt) [Example 5, (−)-(cis)-N-(6-chloro-7-cyano-8,12-difluoro-1,3,4,14b-tetrahydro-2H-dibenzo [b,f]pyrido[1,2-d][1,4]oxazepin-1-yl)-2,2,2-trifluoroacetamide] returned a melting point of 174 to 175 °C. In series [1], the minimal effective dose was not above 0.025 mg/kg.
As for `N#Cc1cc(F)cc2c1N1CCC[C@H](NC(=O)C(F)(F)F)[C@H]1c1ccccc1O2` [eutomer of example 58 of WO03/ 084963, reference compound], the minimal effective dose in series [1] came to 0.38 mg/kg.
As to `CC(=O)N[C@H]1CCCN2c3c(cc(F)c(C#N)c3Cl)Oc3cccc(F)c3[C@H]12` (stereo in doubt) [Example 6, (−)-(cis)-N-(6-chloro-7-cyano-8,14-difluoro-1,3,4,14b-tetrahydro-2H-dibenzo [b,f]pyrido[1,2-d][1,4]oxazepin-1-yl)acetamide], in series [1], the minimal effective dose was less than 0.02 mg/kg.
Turning to `CC(=O)c1cccc2c1N1CCC[C@H](NC(=O)C(F)(F)F)[C@H]1c1ccccc1O2` [eutomer of example 52 of WO03/ 084963, reference compound], the minimal effective dose in series [1] is more than 4 mg/kg.
On the same count and under the same terms, with `Cc1cc(F)cc2c1N1CCC[C@H](NC(=O)C(F)(F)F)[C@H]1c1ccccc1O2` [example 60 of WO03/ 084963, reference compound] the figure was approximately 1 mg/kg.
Regarding `N#Cc1c(F)cc2c(c1Cl)N1CCC[C@H](NC(=O)C(F)(F)F)[C@H]1c1ccccc1O2` (stereo in doubt) [Example 3, (−)-(cis)-N-[6-chloro-7-cyano-8-fluoro-1,3,4,14b-tetrahydro-2H-dibenzo [b,f]pyrido[1,2-d][1,4]oxazepin-1-yl]-2,2,2-trifluoroacetamide], the minimal effective dose in series [1] turned out to be 0.08 mg/kg.
Same read-out and setting: with `N#Cc1c(F)cc2c(c1C#N)N1CCC[C@H](NC(=O)C(F)(F)F)[C@H]1c1ccccc1O2` (stereo in doubt) [Example 4, (−)-(cis)-N-(6,7-dicyano-8-fluoro-1,3,4,14b-tetrahydro-2H-dibenzo [b,f]pyrido[1,2-d][1,4]oxazepin-1-yl)-2,2,2-trifluoroacetamide] the figure was 0.02 mg/kg; with `C=Cc1cccc2c1N1CCC[C@H](NC(=O)C(F)(F)F)[C@H]1c1ccccc1O2` [eutomer of example 54 of WO03/ 084963, reference compound], more than 4 mg/kg.

By melting point is commonly meant the temperature of the solid-liquid transition.

(Values after patent US7989442B2, “Progesterone receptor modulators” (N.V. Organon, priority 2006, dated 2011).)
